According to ChEMBL document CHEMBL1201862, “PubChem BioAssay data set” (2004):
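Exposure lasted 48 hours, with cells grown in 96-well plates and compounds tested at five concentrations. Abbreviation: GI50, concentration required for 50% inhibition of growth.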 The source made the active and inactive calls. No stated cut-off is given here; in the data, active = GI50 up to about 1.1 µM and inactive = higher.

Experiments:
Assay in all cases: DTP human tumour cell line panel, 48 h
A549 = tested on: A549
COLO 205 = tested on: COLO 205
HOP-92 = tested on: HOP-92
IGROV-1 = tested on: IGROV-1
K562 = tested on: K562
M14 = tested on: M14
NCI-H226 = tested on: NCI-H226
OVCAR-4 = tested on: OVCAR-4
RPMI-8226 = tested on: RPMI-8226
SF-268 = tested on: SF-268
SK-OV-3 = tested on: SK-OV-3
SNB-19 = tested on: SNB-19
SR = tested on: SR
TK-10 = tested on: TK-10
EKVX = tested on: EKVX
SNB-75 = tested on: SNB-75

Measured: GI50

CC1CC(=O)Nc2ccc(Cl)cc2N1C(=O)CN1CCC(CCCCN(C)C)CC1 (stereo not given)
inactive: A549 > 100 µM | COLO 205 > 100 µM | HOP-92 > 100 µM | IGROV-1 > 100 µM | K562 80 µM | M14 > 100 µM | NCI-H226 > 100 µM | OVCAR-4 > 100 µM | RPMI-8226 > 100 µM | SF-268 > 100 µM | SK-OV-3 > 100 µM | SNB-19 > 100 µM | SR > 100 µM | TK-10 > 100 µM

COc1ccc2c3ccc4c(c3n(C)c2c1)C(=O)c1ccccc1C4=O
inactive: A549 74.5 µM | COLO 205 75.2 µM | EKVX > 100 µM | HOP-92 80 µM | IGROV-1 > 100 µM | K562 > 100 µM | M14 > 100 µM | NCI-H226 > 100 µM | OVCAR-4 17.8 µM | RPMI-8226 > 100 µM | SF-268 56.6 µM | SK-OV-3 21.6 µM | SNB-19 > 100 µM | SNB-75 > 100 µM | SR > 100 µM

COc1cc(/C=N/c2nncs2)ccc1O
inactive: A549 > 100 µM | EKVX > 100 µM | HOP-92 > 100 µM | IGROV-1 > 100 µM | K562 > 100 µM | M14 > 100 µM | NCI-H226 > 100 µM | OVCAR-4 > 100 µM | RPMI-8226 > 100 µM | SF-268 > 100 µM | SK-OV-3 > 100 µM | SNB-19 > 100 µM | SNB-75 > 100 µM | SR > 100 µM | TK-10 > 100 µM

Cc1cc(O)c2c(c1)C(O)(c1ccc3c(c1O)C(=O)c1c(O)cc(C)cc1C3(O)C1OC(CO)C(O)C(O)C1O)c1cccc(O)c1C2=O (stereo not given)
inactive: A549 18.3 µM | EKVX 14.3 µM | HOP-92 6.19 µM | IGROV-1 14.7 µM | K562 5.15 µM | M14 14.4 µM | OVCAR-4 12.9 µM | RPMI-8226 16 µM | SF-268 20.1 µM | SK-OV-3 17.6 µM | SNB-19 16.4 µM | SNB-75 14.1 µM | SR 8.15 µM | TK-10 14.1 µM

Cc1cccc(C)c1NC(=O)C(=O)C1C(=O)NC(=O)NC1=O
inactive: A549 > 100 µM | COLO 205 > 100 µM | EKVX > 100 µM | HOP-92 > 100 µM | IGROV-1 > 100 µM | K562 > 100 µM | M14 > 100 µM | NCI-H226 > 100 µM | OVCAR-4 > 100 µM | RPMI-8226 > 100 µM | SF-268 > 100 µM | SK-OV-3 > 100 µM | SNB-19 > 100 µM | SR > 100 µM | TK-10 > 100 µM

OCC(O)C(O)C(O)c1nn(-c2ccc(Cl)cc2)c2nc3cc(Cl)c(Cl)cc3nc12 (stereo not given)
inactive: A549 32.4 µM | COLO 205 > 100 µM | EKVX 22.8 µM | IGROV-1 31.8 µM | K562 50.8 µM | M14 22.7 µM | NCI-H226 21.1 µM | OVCAR-4 > 100 µM | RPMI-8226 > 100 µM | SF-268 71.1 µM | SK-OV-3 23.8 µM | SNB-19 33.7 µM | SNB-75 3.66 µM | SR > 100 µM | TK-10 32.4 µM

CCc1cccc(CC)c1NC(=O)C(=O)Cc1nc2ccccc2o1
inactive: A549 > 100 µM | COLO 205 > 100 µM | EKVX > 100 µM | HOP-92 > 100 µM | IGROV-1 > 100 µM | K562 > 100 µM | M14 > 100 µM | NCI-H226 > 100 µM | OVCAR-4 > 100 µM | RPMI-8226 > 100 µM | SF-268 > 100 µM | SK-OV-3 > 100 µM | SNB-19 > 100 µM | SR > 100 µM | TK-10 > 100 µM

COC(=O)C(CC=O)C(=O)C(=O)Nc1cccc(C(F)(F)F)c1 (stereo not given)
inactive: A549 > 100 µM | EKVX > 100 µM | HOP-92 > 100 µM | IGROV-1 > 100 µM | K562 > 100 µM | M14 > 100 µM | NCI-H226 > 100 µM | OVCAR-4 > 100 µM | RPMI-8226 > 100 µM | SF-268 > 100 µM | SK-OV-3 > 100 µM | SNB-19 > 100 µM | SR > 100 µM | TK-10 > 100 µM

COc1cc2c(cc1O)[C@H](Cc1ccc(Oc3cc(C[C@H]4c5cc(OC)c(OC)cc5CCN4C)ccc3OC)cc1)NCC2
inactive: A549 17.9 µM | COLO 205 17.9 µM | EKVX > 10 µM | HOP-92 5.16 µM | IGROV-1 15.2 µM | K562 2.21 µM | M14 1.81 µM | NCI-H226 12.7 µM | OVCAR-4 12.7 µM | RPMI-8226 12.9 µM | SF-268 11.1 µM | SNB-19 16.1 µM | SNB-75 6.56 µM | SR 7.5 µM | TK-10 > 10 µM

COC(=O)C1CC(OC(C)=O)C=C2C(=O)CCC21 (stereo not given)
inactive: A549 37.2 µM | COLO 205 18.7 µM | IGROV-1 27.2 µM | K562 15.9 µM | M14 16.7 µM | NCI-H226 73.1 µM | OVCAR-4 19 µM | RPMI-8226 21.4 µM | SF-268 16.6 µM | SK-OV-3 27.1 µM | SNB-19 26.2 µM | SNB-75 15.2 µM | SR 14 µM | TK-10 29.4 µM

CCCNCc1nc2ccc(Br)cc2c(=O)n1CCC
inactive: A549 16.6 µM | COLO 205 14.6 µM | EKVX 19.1 µM | IGROV-1 15.6 µM | K562 8.04 µM | M14 14.1 µM | NCI-H226 12.5 µM | OVCAR-4 14.6 µM | RPMI-8226 3.67 µM | SF-268 13.6 µM | SK-OV-3 18.7 µM | SNB-19 16.8 µM | SNB-75 17.1 µM | SR 11.7 µM

COC(=O)C(=O)C1(CCC(C)=O)c2ccccc2-c2ccccc21
inactive: A549 87.5 µM | COLO 205 76.9 µM | EKVX > 100 µM | IGROV-1 > 100 µM | K562 44.5 µM | M14 41 µM | NCI-H226 > 100 µM | OVCAR-4 > 100 µM | RPMI-8226 36.4 µM | SF-268 > 100 µM | SK-OV-3 > 100 µM | SNB-19 > 100 µM | SNB-75 93.3 µM | SR 41 µM | TK-10 71.3 µM

COc1cc(/C=C(\C#N)C(=O)c2ccccc2)cc(OC)c1OC
inactive: A549 > 100 µM | COLO 205 > 100 µM | EKVX > 100 µM | HOP-92 83.4 µM | K562 > 100 µM | M14 > 100 µM | NCI-H226 > 100 µM | OVCAR-4 > 100 µM | RPMI-8226 > 100 µM | SF-268 > 100 µM | SK-OV-3 > 100 µM | SNB-19 > 100 µM | SNB-75 38.1 µM | SR > 100 µM | TK-10 > 100 µM
